{
  "source": "patent US20130345296A1",
  "about": "“Compositions Comprising a Taxane for Coating Medical Devices” (AVIDAL VASCULAR GMBH, priority 2010, published 2013)",
  "origin": "cited, not measured here",
  "key": {"[1]": {"system": "microtubules", "conditions": "in vitro studies; Rowinsky et al. (1990)"}, "[2]": {"system": "leukemia, colon, breast, melanoma, sarcomas, and Lewis lung tumor systems", "conditions": "Tarr et al. (1987); Horwitz (1992)"}},
  "data": [
    {"smiles": "CC(=O)O[C@H]1C(=O)[C@@]2(C)[C@H]([C@H](OC(=O)c3ccccc3)[C@]3(O)C[C@H](OC(=O)[C@H](O)[C@@H](NC(=O)c4ccccc4)c4ccccc4)C(C)=C1C3(C)C)[C@]1(OC(C)=O)CO[C@@H]1C[C@@H]2O", "note": "[taxol, paclitaxel]", "values": [
      {"measurement": "concentrations of taxol that stabilize microtubules", "setting": "[1]", "value": "0.1 to 10.0", "unit": "µg/mL"},
      {"measurement": "activity against tumor systems", "setting": "[2]", "value": "active"}
    ]}
  ]
}
